Laboratory results as given in patent publication US20030003583A1, “Regulation of transgene expression following AAV transduction” (priority 2001, published 2003).
Residues, ends and D or L forms follow the SMILES beside them. *: point of attachment. Cbz = O=C(OCc1ccccc1)*

How the values were obtained:
proteasome = settings: cited from earlier work
[1] = tested on: human type B synoviocytes infected with rAAV(mIL-10); assay: Mouse IL-10 transgene expression (ELISA of supernatants) in human type B synoviocytes infected with rAAV(mIL-10); format: cell-based
Protocol: Synoviocytes were infected with rAAV on day 0. On day 1, cells were exposed to the indicated amounts of zLLL for 24 hours. Supernatants were harvested on days 3 and 7 and assayed by ELISA for mouse IL-10.
Synoviocytes were infected with rAAV on day 0. At various times (indicted by the arrows), some cells were exposed to 40 μM of zLLL for 24 hours (A) or to recombinant adenovirus lacking a transgene (B). Supernatants were harvested and assayed by ELISA for mouse IL-10.
Kwon, C. Mah, and A. Srivastava. 2000. Impaired intracellular trafficking of adeno-associated virus type 2 vectors limits efficient transduction of murine fibroblasts. J Virol 74:992-996) to determine whether human synoviocytes could be made to express a transgene following AAV-mediated gene transfer. […] This is inconsistent with the proposed mechanism of action of zLLL, that of increasing viral trafficking to the nucleus, as transgene expression should be stable once the viral genome reaches the nucleus and sufficient second strand synthesis occurs.
(§1) To further explore this finding, synovial cells were re-exposed to zLLL following the loss of transgene expression. […] In each case, expression peaked 2-3 days following exposure to zLLL and then dropped off. We were able to re-induce transgene expression as far out as 25 days after infection. We have not yet looked at further time points, but we can already conclude that the transgene persists in the synoviocytes for an extended period of time and that its expression can be regulated by zLLL.
This is inconsistent with the proposed mechanism of action of zLLL, that of increasing viral trafficking to the nucleus, as transgene expression should be stable once the viral genome reaches the nucleus and sufficient second strand synthesis occurs.
as §1, with “reinduce” for “re-induce”

[2] = tested on: RA synovium implanted into SCID mice; assay: Luciferase expression in RA synovium implanted into SCID mice, injected with AAV(Luc), after in vivo zLLL; settings: zLLL into the synovial tissue or intraperitoneally two weeks after AAV(Luc); tissue removed 48 hours later
Protocol: RA synovium was implanted into SCID mice. Two weeks later, synovial tissues were injected with 6.8×10^10 particles of AAV(Luc). Two weeks following rAAV administration, zLLL was administered in a 100 μl volume either directly into the synovial tissue or intraperitoneally. Synovial tissues were removed 48 hours later, homogenized, and assayed for luciferase content.
The optimal in vivo dose and route of administration is unclear from this preliminary study and will be addressed in the proposed experiments.

mouse lungs = settings: in vivo; cited from earlier work
other cell types = settings: cited from earlier work
[3] = tested on: human type B synoviocyte cultures infected with rAAV(mIL-4); assay: Real-time PCR of transgene mRNA in human type B synoviocytes infected with rAAV(mIL-4); format: cell-based; settings: 40 μM zLLL for 24 hours
Protocol: Human type B synoviocyte cultures were infected with rAAV(mIL-4). Ten days later, some cells were exposed to 40 μM of zLLL for 24 hours. Cells were harvested and RNA was extracted, reverse transcribed, and subjected to real-time PCR using a LightCycler™ System (Roche Molecular Biochemicals, Indianapolis, Ind.) with the FastStart DNA Master SYBR Green I reaction mix and gene specific primers. LIGHTCYCLER Quantification Software v5.32 was used to compare amplification in the samples during the log-linear phase. Data are normalized to the AAV(mIL-4) samples, which are given a value of 1. The ZLLL group was not infected with AAV (IL-4).
Synoviocytes transduced with AAV(mIL-4) were exposed to zLLL and RNA was extracted and subjected to real-time PCR. zLLL induced a 250-fold increase in mIL-4 mRNA with no increase in the constituitively-expressed gene, GAPDH (FIG. 4).

Structure (SMILES): CC(=O)N[C@@H](CSC(=O)[C@]1([C@@H](O)C(C)C)NC(=O)[C@H](C)[C@@H]1O)C(=O)O [Lactacystin]
- specificity for the proteasome / other proteases inhibited (proteasome): high specificity for the proteasome

Structure (SMILES): CC(C)C[C@@H](C=O)NC(=O)[C@H](CC(C)C)NC(=O)[C@H](CC(C)C)NC(=O)OCc1ccccc1 [zLLL, Carbobenzoxyl-L-leucyl-L-leucyl-L-leucinal] (Cbz-Leu-Leu-Leu-aldehyde)
- transgene expression on re-exposure after loss of expression ([1]; 40 μM zLLL for 24 hours at various times): could be repeatedly induced
- expression of a mouse IL-10 transgene ([1]; 3 days following infection with rAAV, zLLL for 24 hours on day 1, dose dependent): dramatically enhanced
- expression of mouse IL-10 transgene by day 7 ([1]; day 7 after infection, single 24 h zLLL exposure on day 1): expression was lost
- latest time after infection at which transgene expression was re-induced ([1]; days after infection): 25 days
- time of peak expression following exposure ([1]; following each exposure to zLLL): 2 to 3 days
- in vivo transgene (luciferase) expression [2]: dramatically enhanced
- rAAV-mediated transduction in mouse lungs (mouse lungs): enhance rAAV-mediated transduction
- specificity for the proteasome / other proteases inhibited (proteasome): can also inhibit certain lysosomal cysteine proteases and the calpains
- nuclear accumulation of rAAV particles and the rAAV genome (other cell types): increase nuclear accumulation
- change in constitutively expressed gene GAPDH mRNA [3]: no increase
- increase in mIL-4 mRNA ([3]; ten days after infection, normalized to AAV(mIL-4) samples): 250 fold
